Reference: patent US10131932B2, “Method for assaying a protease” (McMaster University, priority 2013, dated 2018)

What was measured:
Thrombin [1] = test: Thrombin activity on T13 FRET-protein substrate with inhibitors; type: biochemical; conditions: 60 minutes incubation, alpha-2-macroglobulin 0.2 μM, PPAck 20 μM
Experimental: The effect of the FRET-protein substrate on the thrombin activity in the absence and presence of alph-2-macroglobulin was then determined. Following addition of either thrombin (as above), thrombin incubated with alpha-2-macroglobulin for 60 minutes (as above) or thrombin incubated for 60 minutes with the thrombin inhibitor, PPAck (D-FPR-chloromethyl ketone, 20 μM), thrombin activity was determined. Thrombin was inhibited by either alpha-2-macroglobulin or PPAck, as shown by the reduction in the slope of the ratio for each (FIG. 11B).

Thrombin [2] = test: Thrombin activity on substrate S2238 with inhibitors; type: biochemical; conditions: 60 minutes incubation, alpha-2-macroglobulin 0.2 μM, PPAck 20 μM
Experimental: The effect of thrombin substrate, S2238, on thrombin activity in the presence and absence of alpha-2-macroglobulin was then determined. Following addition of thrombin (as above), thrombin incubated with alpha-2-macroglobulin for 60 minutes (as above), thrombin incubated with PPAck (as above) for 60 minutes, or thrombin incubated with alpha-2-macroglobulin (0.2 μM) and PPAck (20 μM) for 60 minutes, to S2238, thrombin activity was determined.

[3] = tested on: thrombin generation in whole blood; test: Thrombin generation in unanticoagulated whole blood with FRET-protein substrate; type: biochemical, human; conditions: for area-under-the-curve of slope of the ratio curve / maximal upslope of slope of the ratio curve / peak height of slope of the ratio curve / thrombin generation: increasing amounts of anticoagulant in whole blood
Experimental: In this experiment, 12 μL of unanticoagulated human blood, obtained from a finger prick of a healthy human donor, was added to a plastic vessel (NUNC, Polystyrene, 384 well plate) containing the T13 FRET-protein substrate (8 μL in PIPES buffer, 4.6 μM final concentration) within 30 seconds of lancing the finger. Results were obtained on a fluorescence spectrophotometer, as above, temperature controlled to 37° C. Initially, as the mixture warms, the ratio of emission at 526 nm:581 nm decreases slightly, but then increases, initially sharply to a plateau as shown in FIG. 6.
The slope (first derivative) of the ratio was then determined using a mathematical program such as Excel or GraphPad Prism as shown in FIG. 7A. The curve of the slope of the ratio is smoothed using 20 neighbours using a mathematical program (Excel or GraphPad Prism). This is the typical appearance of a thrombin generation curve in plasma. Parameters that could be used to describe this curve include, but are not limited to, peak height, time to peak, lag time, maximal upslope, and area-under-the curve to a certain time point. FIG. 7B compares a) 12 μL blood combined with FRET-protein substrate (final conc. 4.6 μM) to final volume of 20 μL to b) 20 μL blood combined with FRET-protein substrate (final conc. 5.1 μM) to a final volume of 22.5 μL. The time-to-peak and lag-time are shortened and the peak height, maximal upslope and area-under-the-curve are increased in the latter where the blood is less dilute.
The effect of rivaroxaban on thrombin generation in the blood was determined. Unanticoagulated blood was taken from a finger prick of a healthy volunteer. The blood was added to a plastic vessel containing the FRET-protein substrate (0.62 μM) and rivaroxaban at various concentrations (to a final concentration of 5 μg/L, 25 μg/L and 50 μg/L).
The effect of apixaban on thrombin generation in the blood was also determined. Blood was added to FRET-protein substrate and various concentrations of apixaban was (to a final concentration of 25 μg/L, 100 μg/L, 400 μg/L and 1000 μg/L). Apixaban also alters the shape of the “slope of the ratio curve”.
The effect of dabigatran on thrombin generation in the blood was also determined. Blood was added to FRET-protein substrate and various concentrations of […] was (to a final concentration of 25 μg/L, 100 μg/L and 400 μg/L). Dabigatran also alters the shape of the “slope of the ratio curve”. […]

Thrombin [4] = test: Fibrinogen clotting by thrombin, turbidity at 405 nm; type: biochemical; conditions: 0.2 μM
Experimental: The effect of alpha-2-macroglobulin on thrombin activity was determined. Thrombin (2 nM) and calcium (5 mM) were combined in PIPES buffer. Clotting was initiated by the addition of fibrinogen (3 μM). Clotting was measured by monitoring turbidity 405 nm using a spectrometer. The fibrinogen clotted within 10 minutes and remained clotted.

Molecule | thrombin activity (slope of the ratio) (Thrombin [1]) | thrombin activity (slope of absorbance) (Thrombin [2]) | area-under-the-curve of slope of the ratio curve [3] | maximal upslope of slope of the ratio curve [3] | peak height of slope of the ratio curve [3] | thrombin generation [3] | other results
NC(N)=NCCC[C@H](NC(=O)[C@@H]1CCCN1C(=O)[C@H](N)Cc1ccccc1)C(=O)CCl [PPAck, D-FPR-chloromethyl ketone] | inhibited | substantial inhibition |  |  |  |  | 
COc1ccc(-n2nc(C(N)=O)c3c2C(=O)N(c2ccc(N4CCCCC4=O)cc2)CC3)cc1 [apixaban] |  |  | decreased | decreased | decreased | decreases thrombin generation | time to peak ([3]; anticoagulant in whole blood, dabigatran at higher concentrations): increase the time to peak
O=C(NC[C@H]1CN(c2ccc(N3CCOCC3=O)cc2)C(=O)O1)c1ccc(Cl)s1 [rivaroxaban] |  |  | decreased | decreased | decreased | decrease thrombin generation | 
corn trypsin inhibitor |  |  |  |  |  |  | thrombin generation (peak of slope of ratio) ([3]; 200 μg/mL final concentration, unanticoagulated whole blood): delay and reduce
alpha-2-macroglobulin: thrombin-binding plasma inhibitor protein (protein, UniProt P01023 24-1474, looked up) Alpha-2-macroglobulin: SVSGKPQYMVLVPSLLHTETTEKGCVLLSYLNETVTVSASLESVRGNRSLFTDLEAENDVLHCVAFAVPKSSSNEEVMFLTVQVKGPTQEFKKRTTVMVKNEDSLVFVQTDKSIYKPGQTVKFRVVSMDENFHPLNELIPLVYIQDPKGNRIAQWQSFQLEGGLKQFSFPLSSEPFQGSYKVVVQKKSGGRTEHPFTVEEFVLPKFEVQVTVPKIITILEEEMNVSVCGLYTYGKPVPGHVTVSICRKYSDASDCHGEDSQAFCEKFSGQLNSHGCFYQQVKTKVFQLKRKEYEMKLHTEAQIQEEGTVVELTGRQSSEITRTITKLSFVKVDSHFRQGIPFFGQVRLVDGKGVPIPNKVIFIRGNEANYYSNATTDEHGLVQFSINTTNVMGTSLTVRVNYKDRSPCYGYQWVSEEHEEAHHTAYLVFSPSKSFVHLEPMSHELPCGHTQTVQAHYILNGGTLLGLKKLSFYYLIMAKGGIVRTGTHGLLVKQEDMKGHFSISIPVKSDIAPVARLLIYAVLPTGDVIGDSAKYDVENCLANKVDLSFSPSQSLPASHAHLRVTAAPQSVCALRAVDQSVLLMKPDAELSASSVYNLLPEKDLTGFPGPLNDQDNEDCINRHNVYINGITYTPVSSTNEKDMYSFLEDMGLKAFTNSKIRKPKMCPQLQQYEMHGPEGLRVGFYESDVMGRGHARLVHVEEPHTETVRKYFPETWIWDLVVVNSAGVAEVGVTVPDTITEWKAGAFCLSEDAGLGISSTASLRAFQPFFVELTMPYSVIRGEAFTLKATVLNYLPKCIRVSVQLEASPAFLAVPVEKEQAPHCICANGRQTVSWAVTPKSLGNVNFTVSAEALESQELCGTEVPSVPEHGRKDTVIKPLLVEPEGLEKETTFNSLLCPSGGEVSEELSLKLPPNVVEESARASVSVLGDILGSAMQNTQNLLQMPYGCGEQNMVLFAPNIYVLDYLNETQQLTPEIKSKAIGYLNTGYQRQLNYKHYDGSYSTFGERYGRNQGNTWLTAFVLKTFAQARAYIFIDEAHITQALIWLSQRQKDNGCFRSSGSLLNNAIKGGVEDEVTLSAYITIALLEIPLTVTHPVVRNALFCLESAWKTAQEGDHGSHVYTKALLAYAFALAGNQDKRKEVLKSLNEEAVKKDNSVHWERPQKPKAPVGHFYEPQAPSAEVEMTSYVLLAYLTAQPAPTSEDLTSATNIVKWITKQQNAQGGFSSTQDTVVALHALSKYGAATFTRTGKAAQVTIQSSGTFSSKFQVDNNNRLLLQQVSLPELPGEYSMKVTGEGCVYLQTSLKYNILPEKEEFPFALGVQTLPQTCDEPKAHTSFQISLSVSYTGSRSASNMAIVDVKMVSGFIPLKPTVKMLERSNHVSRTEVSSNHVLIYLDKVSNQTLSLFFTVLQDVPVRDLKPAIVKVYDYYETDEFAIAEYNAPCSKDLGNA | inhibited | little inhibition |  |  |  |  | clotting of fibrinogen (Thrombin [4]; pre-incubation with thrombin (2 nM) for 35 minutes): reduced clotting; clotting of fibrinogen (Thrombin [4]; pre-incubation with thrombin (2 nM) for 60 minutes): inhibited clotting
